Laboratory results from US12419307B2, “Mixtures comprising indazole pesticides” (FMC Corporation, priority 2019, dated 2025).
Like-named read-outs stand apart in the source and are kept apart here.

Tests used:
Format in all cases: in vivo
[1] = tested on: diamondback moth (Plutella xylostella L.); experiment: Test E: diamondback moth control on mustard plants, contact and/or systemic, plant damage rating after 6 days
Procedure, shortened: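 Sprayed 10- to 12-day-old mustard plants (3 replicates), dried 1 h, infested with 30-50 neonate larvae, then held 6 days at 24-25 °C, 70% RH. Plant damage visually rated 0 (undamaged) to 10 (dead); mixture effects judged by Colby's equation.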

[2] = tested on: silverleaf whitefly (Bemisia argentifolii Bellows and Perring); experiment: Test A: silverleaf whitefly control on cotton or soybean plants, spray, insect mortality after 13 days; conditions: Bemisia argentifolii, applied alone, read-out: % Mortality (obs)
Procedure, shortened: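 Cotton (12–14-day) or soybean (5–7-day) plants carrying whitefly eggs were sprayed with compound in 10% acetone/water with non-ionic surfactant. Plants were held 13 days at 28°C and 50–70% RH; mortality was averaged over three replicates. Mixture enhancement was judged against Colby-expected values.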

[3] = tested on: Potato Leafhopper (Empoasca fabae Harris); experiment: Test C: Potato Leafhopper control on bean plants, insect mortality after 6 days; conditions: read-out: % Mortality (obs)
Procedure, shortened: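 Sprays (3 replicates) were applied to 5- to 6-day-old Longio bean plants with one primary leaf excised, which were dried 1 h and infested with 5 adult leafhoppers (18–21 days old). Mortality was scored after 6 days at 19-21° C and 50-70% RH. Mixture enhancement was judged against expected mortality by Colby's equation.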

[4] = tested on: fall armyworm (Spodoptera frugiperda (J. E. Smith)); experiment: Test E: fall armyworm control on corn plants, plant damage rating and mortality after 6 days; conditions: Spodoptera frugiperda, 144 h, read-out: Plant Protection (obs)
[5] = tested on: Western Flower Thrips (Frankliniella occidentalis Pergande); experiment: Test B: Western Flower Thrips control on bean plants, plant damage rating converted to % plant protection after 7 days; conditions: for pest or weed control at 0.4 ppm / pest or weed control at 2 ppm: Frankliniella occidentalis, 168 h, read-out: Plant Protection (obs); for Plant Damage (obs): Table 3a; for Plant Damage (obs) / Plant Protection (obs): applied alone
Procedure, shortened: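 Sprayed 5- to 7-day-old bean (var. Soleil) plants, 3 replicates, dried 1 h, then infested with 22 to 27 adult thrips and held 7 days at 25° C, 45-55% RH. Feeding damage rated 0-10 and converted as 100−(rating×10) to % plant protection.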

O=C(NC1(C(F)F)CC1)c1cccc2nn(-c3cccnc3)cc12 [Cpd 5, N-[1-(difluoromethyl)cyclopropyl]-2-(3-pyridinyl)-2H-indazole-4-carboxamide] was tested, and the “Plant Protection (obs)” value ([1]; Table 6a, 50 ppm) was 0.0, the “Plant Protection (obs)” value ([1]; Table 6a, 250 ppm) was 0.0 and the “Plant Protection (obs)” value ([1]; Table 6b, 50 ppm) was 0.0. The “Plant Protection (obs)” value ([1]; Table 6b, 250 ppm) was 0.0, the mortality at 50 ppm ([2]; 2 h, Table 2h) was 0% and the mortality at 250 ppm ([2]; 2 h, Table 2h) was 6.9%. The mortality at 50 ppm ([2]; 48 h, Table 2d) was 8.9%, the mortality at 250 ppm ([2]; 48 h, Table 2d) was 11.7% and the mortality at 50 ppm ([2]; Table 2a) was 17%. For the same compound, the mortality at 250 ppm ([2]; Table 2a) was 13.5%, the mortality at 50 ppm ([2]; Table 2b) was 49% and the mortality at 250 ppm ([2]; Table 2b) was 19.2%. The mortality at 50 ppm ([2]; Table 2c) was 56.5%, the mortality at 250 ppm ([2]; Table 2c) was 41.1% and the mortality at 50 ppm ([2]; Table 2e) was 56.3%. The mortality at 250 ppm ([2]; Table 2e) was 11.2%, the mortality at 50 ppm ([2]; Table 2f) was 84.4% and the mortality at 250 ppm ([2]; Table 2f) was 55.1%. It also gave a mortality at 50 ppm ([2]; Table 2g) of 30%, a mortality at 250 ppm ([2]; Table 2g) of 73.4% and a mortality at 50 ppm ([2]; Table 2i) of 0%. It also gave a mortality at 250 ppm ([2]; Table 2i) of 0%, a mortality at 50 ppm ([3]; Table 4a) of 0% and a mortality at 250 ppm ([3]; Table 4a) of 26.7%. The mortality at 50 ppm ([3]; Table 4b) was 0%, the mortality at 250 ppm ([3]; Table 4b) was 6.7% and the mortality at 50 ppm ([3]; Table 4c) was 6.7%. It also gave a mortality at 250 ppm ([3]; Table 4c) of 26.7%, a pest or weed control at 50 ppm ([4]; Table 6e) of 0% and a pest or weed control at 250 ppm ([4]; Table 6e) of 0%. It also gave a pest or weed control at 50 ppm ([4]; Table 6f) of 0%, a pest or weed control at 250 ppm ([4]; Table 6f) of 0% and a pest or weed control at 50 ppm ([4]; Table 6g) of 0%. It also gave a pest or weed control at 250 ppm ([4]; Table 6g) of 0%, a pest or weed control at 50 ppm ([4]; Table 6i) of 0% and a pest or weed control at 250 ppm ([4]; Table 6i) of 13.3%. It also gave a pest or weed control at 50 ppm ([4]; Table 6h) of 0%, a pest or weed control at 250 ppm ([4]; Table 6h) of 0% and a pest or weed control at 50 ppm ([4]; Table 6d) of 0%. For the same compound, the pest or weed control at 250 ppm ([4]; Table 6d) was 13.3%, the pest or weed control at 0.4 ppm ([5]; Table 3e, 0.4 ppm) was 70% and the pest or weed control at 2 ppm ([5]; Table 3e, 2 ppm) was 26.7%. It also gave a pest or weed control at 0.4 ppm ([5]; Table 3f, 0.4 ppm) of 33.3%, a pest or weed control at 2 ppm ([5]; Table 3f, 2 ppm) of 60% and a pest or weed control at 0.4 ppm ([5]; Table 3g, 0.4 ppm) of 13.3%. The pest or weed control at 2 ppm ([5]; Table 3g, 2 ppm) was 26.7%, the pest or weed control at 0.4 ppm ([5]; Table 3d, 0.4 ppm) was 43.3% and the pest or weed control at 2 ppm ([5]; Table 3d, 2 ppm) was 63.3%. For the same compound, the “Plant Damage (obs)” value ([5]; 0.4 ppm) was 20.0%, the “Plant Damage (obs)” value ([5]; 2 ppm) was 40.0% and the “Plant Protection (obs)” value ([5]; Table 3b, 0.4 ppm) was 23.3%. The “Plant Protection (obs)” value ([5]; Table 3b, 2 ppm) was 36.7%, the “Plant Protection (obs)” value ([5]; Table 3c, 0.4 ppm) was 16.7% and the “Plant Protection (obs)” value ([5]; Table 3c, 2 ppm) was 40.0%.
